# Assay results published in PubChem BioAssay (NCI).
# Where “and” joins values, the source holds several entries; their conditions need not be identical. Identical values can stand only once.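 48-hour exposure; five concentrations; linearly interpolated endpoints. At the GI50, growth is halved. TGI denotes the concentration required for complete inhibition of growth.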
# Experiments:
# Experiment in all cases: NCI-60 cell line screen, 48 h
# PC-3 prostate = tested on: PC-3 prostate
# SF-295 CNS = tested on: SF-295 CNS
# SF-539 CNS = tested on: SF-539 CNS
# HOP-92 NSCLC = tested on: HOP-92 NSCLC
# MOLT-4 leukemia = tested on: MOLT-4 leukemia
# HS 578T breast = tested on: HS 578T breast
# SR leukemia = tested on: SR leukemia
# HL-60(TB) leukemia = tested on: HL-60(TB) leukemia
# UO-31 renal = tested on: UO-31 renal
# SK-MEL-5 melanoma = tested on: SK-MEL-5 melanoma
SMILES,GI50 (PC-3 prostate),TGI (PC-3 prostate),GI50 (SF-295 CNS),TGI (SF-295 CNS),GI50 (SF-539 CNS),TGI (SF-539 CNS),GI50 (HOP-92 NSCLC),TGI (HOP-92 NSCLC),GI50 (MOLT-4 leukemia),TGI (MOLT-4 leukemia),GI50 (HS 578T breast),TGI (HS 578T breast),GI50 (SR leukemia),TGI (SR leukemia),GI50 (HL-60(TB) leukemia),TGI (HL-60(TB) leukemia),GI50 (UO-31 renal),TGI (UO-31 renal),GI50 (SK-MEL-5 melanoma),TGI (SK-MEL-5 melanoma)
O=C(/C=C/c1cccs1)c1ccc(Nc2nc(Nc3ccc(F)cc3)nc(Nc3ccc(F)cc3)n2)cc1,19000 nM,44.4 µM,20400 nM,46.6 µM,17800 nM,35.7 µM,25800 nM,57.8 µM,29100 nM,> 100 µM,23.8 µM,74.3 µM,14700 nM,60.1 µM,62200 nM,> 100 µM,19500 nM,79.7 µM,56400 nM,> 100 µM
O=C1/C(=C/c2ccccc2F)CNC/C1=C\c1ccccc1F,295 nM and 551 nM,1.07 µM and 3.2 µM,707 nM and 531 nM,3.5 µM and 1.71 µM,269 nM and 870 nM,0.828 µM and 2.99 µM,2820 nM and 1920 nM,7.37 µM and 4.71 µM,425 nM and 738 nM,1.76 µM and 3.13 µM,0.533 µM and 4.11 µM,,77.2 nM and 245 nM,0.361 µM and 0.813 µM,371 nM and 2040 nM,1.96 µM and 6.92 µM,567 nM and 753 nM,1.8 µM and 2.05 µM,1220 nM and 1590 nM,2.85 µM and 3.05 µM
C/C(=C\c1ccn(-c2ccc(N)c(F)c2)n1)[C@@H]1C[C@@H]2O[C@]2(C)CCC[C@H](C)[C@H](O)[C@@H](C)C(=O)C(C)(C)[C@@H](O)CC(=O)O1,13.9 nM,> 50 µM,20.5 nM,> 50 µM,12 nM,0.11 µM,11.9 nM,> 44.4 µM,10.6 nM,> 50 µM,0.0108 µM,,9.15 nM,> 50 µM,8.73 nM,0.323 µM,98.2 nM,> 50 µM,8.82 nM,6.54 µM
Nc1ncnc2c1ncn2CC(O)C(=O)O (stereo unspecified),,> 100 µM,,> 100 µM,,> 100 µM,,> 100 µM,,> 100 µM,,> 100 µM,,> 100 µM,,> 100 µM,,> 100 µM,,> 100 µM
CCCCCCCCCCC(O)[C@H]1CCC(C2CC[C@H]([C@H](O)CCCCCCCCCCC(O)CC3=CC(C)OC3=O)O2)O1 (stereo partly specified),,3.73 µM,290 nM,14.1 µM,,2.9 µM and 5.61 µM,,5.87 µM and 6.72 µM,,3.69 µM,,3.5 µM,,9.23 µM,,6.37 µM,,2.36 µM and 2.67 µM,< 10 nM,2.47 µM and 1.74 µM
C[C@H]1[C@H](C)CC[C@]2(C(=O)N3CCN(C)CC3)CC[C@]3(C)C(=CC[C@@H]4[C@@]5(C)C/C(=C/c6cccnc6)C(=O)C(C)(C)[C@@H]5CC[C@]43C)[C@H]12,541 nM,1.85 µM,1600 nM,3.01 µM,1440 nM,2.78 µM,446 nM,1.84 µM,1920 nM,5.75 µM,1.43 µM,5.4 µM,1370 nM,> 100 µM,487 nM,1.86 µM,775 nM,2.16 µM,1140 nM,2.54 µM
O=Cc1cn(Cc2cccc(Cl)c2)c2ccccc12,5760 nM,22.4 µM,948 nM,14.2 µM,14700 nM,28 µM,6190 nM,20.8 µM,6690 nM,31.8 µM,7.27 µM,34.1 µM,23900 nM,55.7 µM,7500 nM,29.9 µM,5490 nM,21.1 µM,4100 nM,17.4 µM
Cc1ccc(NC(=O)c2cc3ccccc3c(N=Nc3ccccc3O)c2O)c(C)c1,,10 µM,,10.5 µM,,,,12.9 µM,,10.1 µM,,8.29 µM,,3.53 µM,,4.09 µM,,,,3.35 µM
COc1ccc(C/C(C)=C(\c2ccc(OCCN3CCOCC3)cc2)c2ccc(OC(=O)Cc3ccccc3)cc2)cc1,747 nM,2.97 µM,580 nM,1.12 µM,513 nM,0.977 µM,280 nM,0.901 µM,593 nM,1.91 µM,0.658 µM,1.67 µM,648 nM,1.73 µM,553 nM,1.26 µM,422 nM,0.952 µM,485 nM,0.93 µM
NC1=C(Br)C(=O)c2ncccc2C1=O,1650 nM,9.64 µM,,1.41 µM,,0.629 µM,,3.06 µM,,4.83 µM,0.37 µM,2.84 µM,,1.84 µM,,2.81 µM,,1.07 µM,,1.46 µM
C=C(C)C(=O)OC1CC2=CC(CC3(C)OC3C3OC(=O)C(=C)C13)OC2=O (stereo unspecified),,28.1 µM,,32.7 µM,,18.3 µM,,7.35 µM,,15 µM,,44.3 µM,,15.7 µM,749 nM,,,26.2 µM,,31 µM
C=CC1=C[C@@H]2[C@@H]3O[C@]4(CC[C@H](O4)[C@@H](C)C[C@@H](O)C3=O)C[C@H](O)C3=NCC[C@@]32CC1,< 3.33 nM,0.0122 µM,< 3.33 nM,< 0.00333 µM,< 3.33 nM,< 0.00333 µM,< 3.33 nM,0.00606 µM,< 3.33 nM,0.112 µM,< 0.00333 µM,< 0.00333 µM,< 3.33 nM,> 33.3 µM,< 3.33 nM,< 0.00333 µM,< 3.33 nM,< 0.00333 µM,< 3.33 nM,< 0.00333 µM
CC(=O)NCCSC(=O)c1ccccc1,,4.07 µM,,0.83 µM,,1.39 µM,,15.5 µM,,0.0902 µM,,5.52 µM,,0.66 µM,26 nM,0.829 µM,,,,0.0801 µM
Cc1ccc(/C=C2/SC(Nc3nc(-c4nc(NC5=NC(=O)/C(=C\c6ccc(C)cc6)S5)sc4C)c(C)s3)=NC2=O)cc1,757 nM,> 50 µM,,0.874 µM,379 nM,1.84 µM,17100 nM,> 47.8 µM,> 19700 nM,> 50 µM,0.0926 µM,1.14 µM,373 nM,> 50 µM,368 nM,> 50 µM,6030 nM,> 50 µM,77 nM,
NC(=O)c1cc([N+](=O)[O-])c(Cl)c([N+](=O)[O-])c1,1910 nM,4.26 µM,17300 nM,31.9 µM,2020 nM,4 µM,1960 nM,4.18 µM,2620 nM,5.68 µM,11.9 µM,29.4 µM,1890 nM,> 100 µM,3210 nM,8.55 µM,1770 nM,3.24 µM,5590 nM,18 µM
Cn1c(=O)c(Oc2ccc(F)cc2F)cc2cnc(NC(CO)CO)nc21,> 25000 nM,> 25 µM,> 25000 nM,> 25 µM,> 25000 nM,> 25 µM,14700 nM,> 25 µM,> 25000 nM,> 25 µM,> 25 µM,> 25 µM,> 25000 nM,> 25 µM,> 25000 nM,> 25 µM,> 25000 nM,> 25 µM,> 25000 nM,> 25 µM
C[C@]12CC[C@@H]3c4ccc(O)cc4CC[C@H]3[C@@H]1CC[C@@H]2NS(=O)(=O)c1cccc(C(F)(F)F)c1,2780 nM,13.9 µM,1860 nM,3.63 µM,4210 nM,16.2 µM,1940 nM,7.81 µM,3200 nM,16.7 µM,3.24 µM,15.6 µM,3980 nM,27.2 µM,3540 nM,15.5 µM,2250 nM,11.6 µM,1790 nM,3.29 µM
Cn1ccnc1C(=O)/C=C/c1ccc(CC(=O)Nc2ccc(S(F)(F)(F)(F)F)cc2)cc1,534 nM,2.03 µM,2160 nM,4.73 µM,1020 nM,3.26 µM,1130 nM,3.92 µM,578 nM,1.51 µM,4.91 µM,16.4 µM,530 nM,1.86 µM,620 nM,4.47 µM,2220 nM,4.35 µM,3020 nM,5.48 µM
CCc1ccccc1N1CCN(C(=O)c2cc(OC)c(OC)c(OC)c2)CC1,,> 9.26 µM,,0.0341 µM,,0.12 µM,,12.3 µM,,41.4 µM,,0.0608 µM,,> 55.1 µM,,1.62 µM,,63.4 µM,,3.79 µM
O=C1c2ccc3c4c5ccc(c24)C(=O)N1CCCOCCCCOCCCNCc1ccc(cc1)CNCCCOCCCCOCCCN(C3=O)C5=O,904 nM,2.76 µM,881 nM,1.69 µM,871 nM,1.64 µM,782 nM,2.08 µM,981 nM,2.62 µM,1.4 µM,5.32 µM,621 nM,2.62 µM,1010 nM,2.03 µM,1100 nM,5.12 µM,855 nM,1.55 µM
COc1cc(C(O)c2nc3ccccc3s2)cc(OC)c1OC (stereo unspecified),15900 nM,> 100 µM,6290 nM,> 100 µM,> 100000 nM,> 100 µM,1150 nM,31.2 µM,18100 nM,> 100 µM,40.5 µM,> 100 µM,9010 nM,> 100 µM,14200 nM,> 100 µM,6200 nM,> 100 µM,7350 nM,79.5 µM
COC(=O)c1cc(-c2cc(OC)c(OC)c(OC)c2)[nH]c1N/N=C/c1c(Cl)cccc1Cl,893 nM,,1010 nM,22.8 µM,1350 nM,5.47 µM,857 nM,7.48 µM,9270 nM,> 56.3 µM,1.15 µM,> 27 µM,926 nM,> 100 µM,,> 100 µM,837 nM,4.51 µM,3170 nM,17.6 µM
O=C1/C(=C/c2ccc([N+](=O)[O-])o2)Oc2ccc(Br)cc21,3520 nM,15.2 µM,17100 nM,36.8 µM,1890 nM,4.19 µM,1520 nM,3.1 µM,3070 nM,9.4 µM,3.91 µM,26.9 µM,770 nM,5.52 µM,6700 nM,25.7 µM,1460 nM,3.02 µM,2670 nM,8.17 µM
COC1(O)C(=O)c2ccccc2OC1(OC)c1ccccc1 (stereo unspecified),,> 100 µM,,> 100 µM,,> 100 µM,,> 100 µM,,> 100 µM,,> 100 µM,,> 100 µM,,> 100 µM,,,,> 100 µM
COc1cc2c3c(n(CCCNCC(OC)OC)c(=O)c2cc1OC)-c1cc2c(cc1C3=O)OCO2,2350 nM,40.6 µM,303 nM,49.4 µM,2420 nM,24.9 µM,1450 nM,19.1 µM,< 10 nM,1.14 µM,10.4 µM,> 29.3 µM,< 10 nM,,2600 nM,> 28.3 µM,2130 nM,22.5 µM,,
O=C1C=C[C@@]23C[C@@H](Nc4c(O)c5c6c(c42)=NCCC=6C=N5)SC3=C1,2420 nM,7.61 µM,6680 nM,19.3 µM,3080 nM,9.58 µM,3180 nM,10.2 µM,,,3.75 µM,19.8 µM,2260 nM,6.14 µM,,5.61 µM,,22.8 µM,1930 nM,3.38 µM
CCCCCCC#Cc1ccccc1C#CCO,25400 nM,95.2 µM,16200 nM,30.2 µM,19000 nM,35.6 µM,13800 nM,26.7 µM,,,17.2 µM,39.4 µM,39900 nM,> 100 µM,38700 nM,> 100 µM,18800 nM,38.6 µM,16800 nM,30.8 µM
